Measured values as given in patent US11046690B2, “Pyridazinones and methods of use thereof” (Goldfinch Bio, Inc., priority 2018, dated 2021).

Biological target: T1, TRPC4 (Homo sapiens, UniProt Q9UBN4)
T1 construct: expressed in transfected cells
T1 sequence (Q9UBN4 1-982 isoform Q9UBN4-5): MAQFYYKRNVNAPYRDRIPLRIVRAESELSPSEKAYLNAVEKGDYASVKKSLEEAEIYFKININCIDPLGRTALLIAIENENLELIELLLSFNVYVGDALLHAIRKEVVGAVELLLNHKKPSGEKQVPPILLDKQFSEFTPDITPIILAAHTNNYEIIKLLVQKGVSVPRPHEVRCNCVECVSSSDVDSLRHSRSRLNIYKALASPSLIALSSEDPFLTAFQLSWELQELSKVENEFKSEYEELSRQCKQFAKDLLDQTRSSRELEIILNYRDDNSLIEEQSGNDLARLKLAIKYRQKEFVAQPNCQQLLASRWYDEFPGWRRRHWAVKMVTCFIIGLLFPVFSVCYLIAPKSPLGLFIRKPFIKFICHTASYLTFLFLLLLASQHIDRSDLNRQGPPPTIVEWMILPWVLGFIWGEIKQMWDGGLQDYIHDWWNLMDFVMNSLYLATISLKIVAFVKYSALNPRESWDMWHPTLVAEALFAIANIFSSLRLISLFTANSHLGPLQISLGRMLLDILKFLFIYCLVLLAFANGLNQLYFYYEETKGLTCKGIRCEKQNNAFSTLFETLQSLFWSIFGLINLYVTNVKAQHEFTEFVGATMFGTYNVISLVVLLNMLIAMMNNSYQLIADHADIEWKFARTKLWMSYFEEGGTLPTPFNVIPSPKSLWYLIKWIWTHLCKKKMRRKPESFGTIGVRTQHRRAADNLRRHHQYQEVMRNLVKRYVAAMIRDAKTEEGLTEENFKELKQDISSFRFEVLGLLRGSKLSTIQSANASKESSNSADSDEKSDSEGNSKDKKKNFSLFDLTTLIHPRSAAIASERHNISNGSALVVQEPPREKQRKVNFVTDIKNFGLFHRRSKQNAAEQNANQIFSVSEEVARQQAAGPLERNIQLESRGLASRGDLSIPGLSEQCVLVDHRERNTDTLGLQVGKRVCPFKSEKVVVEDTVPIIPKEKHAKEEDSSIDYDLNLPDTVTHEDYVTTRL
Test: TRPC4 activity assay (FLIPR calcium fluorescence, Englerin A stimulation)
Format: cell-based
Details: HEK-TREx hTRPC4 cells, 100 nM Englerin A stimulation; read-out: TRPC4 (IC50 class)
Method: ICLN-1694 cells (HEK-TREx hTRPC4) expressing TRPC4 were generated as follows. Commercially available HekTrex-293 cells were seeded at 0.7×10^6 cells/well in a 1×6-well plate 24 hrs prior to transfection using 2 mL cell growth media containing no antibiotics (1× DMEM/high glucose (Hyclone #SH30022.02); 10%0/fetal bovine serum (Sigma) 2 mM sodium pyruvate, 10 mM HEPES). […] On day 2, 2 μg of plasmid DNA plus 6 μl of Xtreme-GENE HP reagent in Optimem (200 μl total volume) was prepared and incubated for 15 min at room temperature. This plasmid solution was then gently overlayed dropwise onto each well and the plate was gently swirled to mix complex with the media for approximately 30 seconds. Transfected cells were incubated at 37° C. in a 10% C02 incubator for 24 hrs. The transfected cells were harvested and transferred into 2×150 mm dishes containing cell growth media with no antibiotics at 37° C.
The next day selection was initiated to generate a stable pool by adding cell growth media containing 150 μg/mL Hygromycin and 5 μg/mL Blasticidin and cells were allowed to grow. Media with the selection agent was changed every 1-2 days as needed to remove dead cells. After 7 days, the hygromycin concentration was reduced to 75 μg/mL and cells growth was allowed to continue.
Single clones were selected as follows. The stable pool was diluted to 10 cells/mL and seeded (100 μl/well) into 24×96 well plates (˜1 cell/well) and allowed to grow for 7 days in cell growth media. Fresh media (100 μl) was added and the cells allowed to grow for another 1-2 weeks and then stored frozen or used immediately.
10-point dose response curves were generated using the Echo-550 acoustic dispenser. Compound source plates were made by serially diluting compound stocks to create 10 mM, 1 mM, and 0.1 mM solutions in DMSO into Echo-certified LDV plates. The Echo then serially spotted 100% DMSO stock solutions into source dose response plates to generate a 4-fold dilution scheme. 100% DMSO was added to the spotted dose response plates to bring the final volume to 5 μl. […] of the dose response stock plate was then spotted into pre-incubation and stimulation assay plates. 50 μl of pre-incubation buffer and 100 μl of stimulation buffer was then added to the plates resulting in a final assay test concentration range of 30 μM to 0.0001 μM with a final DMSO concentration of 0.3%.
ICLN-1694 cells (HEK-TREx hTRPC4) were plated onto 384 well, black pdl-coated microplates and maintained in cell growth media supplemented with 1 μg/mL tetracycline the day prior to use for experiments. TRPC4 expression was induced by the application of 1 μg/mL tetracycline at the time of plating. […] Cells were incubated at room temperature, protected from light, for 60-90 minutes. After the incubation period, the dye was removed and replaced with 10 μl of EBSS. Cell, pre-incubation and stimulation plates were loaded onto the FLIPR-II and the assay was initiated. The FLIPR measured a 10 second baseline and then added 10 μl of 2X compounds (or controls). Changes in fluorescence were monitored for an additional 5 minutes. After a 5 minute pre-incubation, 20 μl of 2X Englerin A (with 1X compound or controls) was added to the cell plate. The final Englerin A stimulation concentration in the assay was 100 nM. After the Englerin A addition, changes in fluorescence were monitored for an additional 5 minutes.
Compound modulation of TRPC4 calcium response was determined as follows. After the Englerin A, fluorescence was monitored for a 5-minute period. The maximum relative fluorescence response (minus the control response of 1 μM of an internal control compound known to maximally block TRPC4 calcium response, the “REF INHIB” in the formula below) was captured and exported from the FLIPR.
Compound effect is calculated as % inhibition using the following formula:
[formula] wherein “RFU” is the relative fluorescent units.

Structure (SMILES): CC1Cc2c(ncnc2Oc2ccc(F)cc2Cl)CN1c1cn[nH]c(=O)c1Cl (single isomer, unassigned) [Compound 117]
- IC50: 0.05 to 0.5 µM

Structure (SMILES): O=c1[nH]ncc(N2CCc3c(ncnc3Oc3ccc(F)cc3Cl)C2)c1Cl [Compound 104]
- IC50: < 0.05 µM
